Common to all, as to type: functional
Test [1] has as its system Staphylococcus aureus. Put plainly: Antibacterial activity against Staphylococcus aureus SH1000 in stationary phase assessed as reduction in cell viability at 4 times MIC after 2 hrs by time kill kinetic assay relative to control.
The subject of a further test is Burkholderia cepacia. Put plainly: Antibacterial activity against Burkholderia cepacia assessed as cell killing at 250 ug/ml after 15 mins followed by irradiation with paterson lamp at 100 J/cm'2 by serial ten fold dilution method.
Test [2] deals with Staphylococcus aureus. Nature of the test: Antibacterial activity against methicillin-resistant Staphylococcus aureus 180 assessed as planktonic cell killing at 5 ug/ml after 15 mins followed by irradiation with paterson lamp at 100 J/cm'2 by serial ten fold dilution method.
The next test relates to Trichophyton rubrum. Put plainly: Antifungal activity against Trichophyton rubrum infected in mouse assessed as reduction in fungal burden using light source at 42 J/cm'2 for 10 mins for 7 days. The arrangement: scale not given: the % may be the effect or the level left.
In test [3] the test system is Pseudomonas aeruginosa. Put plainly: Antibiofilm activity against Pseudomonas aeruginosa ATCC 9027 assessed as decrease in cell viability using laser illumination at 13.2 J.
Test [4] deals with Pseudomonas aeruginosa. Nature of the test: Antibacterial activity against Pseudomonas aeruginosa ATCC 9027 assessed as planktonic cell killing using laser illumination at 15.5 J/cm'2.
In test [5] the test system is Staphylococcus aureus. Nature of the test: Antibacterial activity against methicillin-resistant Staphylococcus aureus 180 assessed as planktonic cell killing at 50 ug/ml after 15 mins followed by irradiation with paterson lamp at 100 J/cm'2 by serial ten fold dilution method.
The subject of test [6] is Staphylococcus aureus. Nature of the test: Antibiofilm activity against Staphylococcus aureus SH1000 after 24 hrs by plate count method.
Test [7] has as its system Staphylococcus aureus. Nature of the test: Antibiofilm activity against Staphylococcus aureus SH1000 assessed as inhibition of planktonic bacterial growth after 24 hrs by turbidity method. The following applies: SH1000, 24 h.
Test [8] concerns Candida albicans. Nature of the test: Antimicrobial activity against Candida albicans ATCC-MYA-273 assessed as reduction in planktonic cell viability at 0.5 uM irradiated with blue light at 12 J/cm'2 for 15 mins by ten fold serial dilution method.
For test [9], the system named is Staphylococcus aureus. Nature of the test: Antibacterial activity against methicillin-resistant Staphylococcus aureus ATCC BAA-44 infected in porcine stratum corneum assessed as reduction in viable cells at 10 uM preincubated for 1 hr with bacteria prior to application of bacteria on skin incubated for 5 to 240 mins followed by irradiation with blue light.
Test [10] concerns Candida albicans. Nature of the test: Antibiofilm activity against Candida albicans ATCC-MYA-273 assessed as cell killing at 1 uM irradiated with blue light at 48 J/cm'2 for 4 hrs by microplate reader method.

`N=C(NCCCCCCNC(=N)NC(=N)Nc1ccc(Cl)cc1)NC(=N)Nc1ccc(Cl)cc1` [CHLORHEXIDINE]: the Activity in the test with Staphylococcus aureus [1] is recorded as 3 deltalog10CFU/ml.
As to `C[n+]1ccc(-c2c3nc(c(-c4cc[n+](C)cc4)c4ccc([nH]4)c(-c4cc[n+](C)cc4)c4nc(c(-c5cc[n+](C)cc5)c5ccc2[nH]5)C=C4)C=C3)cc1.Cc1ccc(S(=O)(=O)[O-])cc1.Cc1ccc(S(=O)(=O)[O-])cc1.Cc1ccc(S(=O)(=O)[O-])cc1.Cc1ccc(S(=O)(=O)[O-])cc1`, the Activity in the test with Burkholderia cepacia worked out at 99.9%; in the test on Staphylococcus aureus [2] it was 100%.
Turning to `Cc1cc2nc3ccc(N(C)C)cc3[s+]c2cc1N.[Cl-]` [TOLONIUM CHLORIDE], in the test on Trichophyton rubrum, the Activity is listed as 87%.
As for `CN(C)c1ccc2nc3ccc(N(C)C)cc3[s+]c2c1.[Cl-]` [METHYLENE BLUE ANHYDROUS], the Activity in the test on Pseudomonas aeruginosa [3] was more than 99.999%; in the test with Pseudomonas aeruginosa [4] it was 100%; in the test on Burkholderia cepacia, 100%; in the test on Staphylococcus aureus [5], 100%.
Turning to `C[N+](C)(C)CCCOc1cccc(-c2c3nc(cc4ccc([nH]4)c(-c4cccc(OCCC[N+](C)(C)C)c4)c4nc(cc5ccc2[nH]5)C=C4)C=C3)c1.[Cl-].[Cl-]`, the MBEC in the test on Staphylococcus aureus [6] turned out to be 2 mg/L. In addition, the MIC in the test on Staphylococcus aureus [7] came to 1 µg/mL. In addition, in the test with Staphylococcus aureus [1], the Activity result is given as “>=5 deltalog10CFU/ml”.
In the test with Staphylococcus aureus [6], `C[N+](C)(C)CCCOc1ccc(-c2c3nc(cc4ccc([nH]4)c(-c4ccc(OCCC[N+](C)(C)C)cc4)c4nc(cc5ccc2[nH]5)C=C4)C=C3)cc1.[Cl-].[Cl-]` [EXEPORFINIUM CHLORIDE] registered an MBEC of 2 mg/L. Besides, the Activity in the test on Candida albicans [8] was 6 deltalog10CFU/ml; in the test on Staphylococcus aureus [9], 3.6 deltalog10CFU/ml; with Candida albicans [10], 5 deltalog10CFU/ml; with Staphylococcus aureus [1] it was “>=5 deltalog10CFU/ml”. In the test on Staphylococcus aureus [7], the MIC came out at 1 µg/mL.
For the compound Cetyltrimethylammonium bromide, the Activity (deltalog10CFU/ml) with Staphylococcus aureus [1] is 3.
